Legend:
[1] = target: T1, B1R receptor of the rat (rB1R) (Rattus norvegicus, UniProt P97583); assay: Functional investigation on the bradykinin receptor 1 (B1R), FLIPR Ca2+ assay, rB1R cells; type: cell-based
T1 construct: expressed in transfected cells; host or cells: CHO K1 cells
T1 sequence (P97583 1-337): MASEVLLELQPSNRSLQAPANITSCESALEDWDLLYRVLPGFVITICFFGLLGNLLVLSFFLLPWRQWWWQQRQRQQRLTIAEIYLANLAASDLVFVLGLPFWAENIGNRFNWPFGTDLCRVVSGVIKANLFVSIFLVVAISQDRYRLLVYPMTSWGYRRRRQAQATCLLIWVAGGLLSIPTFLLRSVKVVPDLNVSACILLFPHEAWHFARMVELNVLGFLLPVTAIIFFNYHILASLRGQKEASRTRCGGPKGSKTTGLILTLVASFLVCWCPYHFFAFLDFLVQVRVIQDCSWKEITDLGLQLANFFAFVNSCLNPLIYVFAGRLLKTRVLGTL
Method in brief: (§1)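 Stably transfected CHO K1 cells expressing human or rat B1R were loaded with Fluo-4, and Ca2+ fluorescence was read on a FLIPR. Compound (10 μM) was added first to measure activation. After 10–20 min, agonist at EC80 was added (Lys-Des-Arg9-bradykinin for hB1R, Des-Arg9-bradykinin for rB1R) to give % inhibition. IC50 values came from concentration series.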

[2] = target: T2, human B1R receptor (hB1R) (Homo sapiens, UniProt P46663); assay: Functional investigation on the bradykinin receptor 1 (B1R), FLIPR Ca2+ assay, hB1R cells; type: cell-based
T2 construct: expressed in transfected cells; host or cells: CHO K1 cells
T2 sequence (P46663 1-353): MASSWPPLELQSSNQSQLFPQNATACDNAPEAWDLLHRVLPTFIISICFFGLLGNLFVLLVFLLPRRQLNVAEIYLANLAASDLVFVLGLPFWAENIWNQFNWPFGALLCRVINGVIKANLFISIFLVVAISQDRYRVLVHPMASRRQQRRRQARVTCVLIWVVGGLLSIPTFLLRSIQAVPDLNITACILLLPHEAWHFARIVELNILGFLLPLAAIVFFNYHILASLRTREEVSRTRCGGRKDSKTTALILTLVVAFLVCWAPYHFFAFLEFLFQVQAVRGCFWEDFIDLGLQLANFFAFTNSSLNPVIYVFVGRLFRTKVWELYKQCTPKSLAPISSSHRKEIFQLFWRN
Method in brief: as §1

SMILES	inhibition at 10 µM [1] [%]	inhibition at 10 µM [2] [%]
COc1cc(C)c(S(=O)(=O)N(Cc2nc3cccc(C(=O)N4CCC5(CC4)CCN(c4ccncc4)CC5)c3[nH]2)C2CC2)c(C)c1 [I_14, N-cyclopropyl-4-methoxy-2,6-dimethyl-N-[[7-(9-pyridin-4-yl-3,9-diazaspiro[5.5]undecane-3-carbonyl)-1H-benzoimidazol-2-yl]-methyl]-benzenesulfonic acid amide]	95	99
COc1cc(C)c(S(=O)(=O)N(C)Cc2nc3cccc(C(=O)N4CCC5(CC4)CC(c4ccncc4)=NO5)c3[nH]2)c(C)c1 [I_27, 4-methoxy-N,2,6-trimethyl-N-[[7-(3-pyridin-4-yl-1-oxa-2,8-diazaspiro[4.5]dec-2-ene-8-carbonyl)-1H-benzoimidazol-2-yl]-methyl]-benzenesulfonic acid amide]	94	93
Cc1cc(S(=O)(=O)N(C)Cc2nc3cccc(C(=O)N4CCC5(CC4)CCN(c4ccncc4)CC5)c3[nH]2)c(C)cc1Cl [I_CC-01, 4-chloro-N,2,5-trimethyl-N-[[7-(3-pyridin-4-yl-3,9-diazaspiro[5.5]undecane-9-carbonyl)-1H-benzoimidazol-2-yl]-methyl]-benzenesulfonic acid amide]	92	96
COc1cc(C)c(S(=O)(=O)N(C)Cc2nc3cccc(C(=O)N4CCC5(CCN(c6ccncc6)C5)C4)c3[nH]2)c(C)c1 (centres unmarked) [I_10, 4-methoxy-N,2,6-trimethyl-N-[[7-(8-pyridin-4-yl-3,8-diazaspiro[4.4]nonane-3-carbonyl)-1H-benzoimidazol-2-yl]-methyl]-benzenesulfonic acid amide]	104	100
COc1cc(C)c(S(=O)(=O)N(C)Cc2nc3cccc(C(=O)N4CCC5(CCC(N6CCC6)CC5)CC4)c3[nH]2)c(C)c1 [I_04, N-[[7-[9-(azetidin-1-yl)-3-azaspiro[5.5]undecane-3-carbonyl]-1H-benzoimidazol-2-yl]-methyl]-4-methoxy-N,2,6-trimethyl-benzenesulfonic acid amide]	97	99
COc1cc(C)c(S(=O)(=O)N(C)C(C)c2nc3cccc(C(=O)N4CCC5(CCN(Cc6cccnc6)CC5)CC4)c3[nH]2)c(C)c1 (centres unmarked) [I_CC-28, 4-Methoxy-N,2,6-trimethyl-N-[1-[7-[9-(pyridin-3-yl-methyl)-3,9-diazaspiro[5.5]undecane-3-carbonyl]-1H-benzoimidazol-2-yl]-ethyl]-benzenesulfonic acid amide]	85	96
COc1cc(C)c(S(=O)(=O)N(C)CCc2nc3ccc(C(=O)N4CCC5(CC4)CCN(c4ccncc4)CC5)cc3[nH]2)c(C)c1 [I_26, 4-methoxy-N,2,6-trimethyl-N-[2-[6-(9-pyridin-4-yl-3,9-diazaspiro[5.5]undecane-3-carbonyl)-1H-benzoimidazol-2-yl]-ethyl]-benzenesulfonic acid amide]	103	98
Cc1cccc(Cl)c1S(=O)(=O)N(C)Cc1nc2cccc(C(=O)N3CCC4(CC3)CCN(c3ccncc3)CC4)c2[nH]1 [I_CC-11, 2-chloro-N,6-dimethyl-N-[[7-(3-pyridin-4-yl-3,9-diazaspiro[5.5]undecane-9-carbonyl)-1H-benzoimidazol-2-yl]-methyl]-benzenesulfonic acid amide]	91	98
CN(Cc1nc2ccc(C(=O)N3CCC4(CC3)CCN(c3ccncc3)CC4)cc2[nH]1)S(=O)(=O)c1cccc2ccccc12 [I_25, N-methyl-N-[[6-(9-pyridin-4-yl-3,9-diazaspiro[5.5]undecane-3-carbonyl)-1H-benzoimidazol-2-yl]-methyl]-naphthalene-1-sulfonic acid amide]	96	95
COc1cc(C)c(S(=O)(=O)N(C)C(C)c2nc3cccc(C(=O)N4CCC5(CCN(Cc6ccc(F)cc6F)CC5)CC4)c3[nH]2)c(C)c1 (centres unmarked) [I_CC-32, N-[1-[7-[9-[(2,4-Difluoro-phenyl)-methyl]-3,9-diazaspiro[5.5]undecane-3-carbonyl]-1H-benzoimidazol-2-yl]-ethyl]-4-methoxy-N,2,6-trimethyl-benzenesulfonic acid amide]	99	71

Other lines, results leading:

inhibition at 10 µM [1] [%]	inhibition at 10 µM [2] [%]	SMILES
98	83	COc1cc(C)c(S(=O)(=O)N(C)C(C)c2nc3cccc(C(=O)N4CCC5(CCN(Cc6cnn(C)c6C)CC5)CC4)c3[nH]2)c(C)c1 (centres unmarked) [I_CC-41, N-[1-[7-[9-[(1,5-Dimethyl-1H-pyrazol-4-yl)-methyl]-3,9-diazaspiro[5.5]undecane-3-carbonyl]-1H-benzoimidazol-2-yl]-ethyl]-4-methoxy-N,2,6-trimethyl-benzenesulfonic acid amide]
101	15	COc1cc(C)c(S(=O)(=O)N(C)C(C)c2nc3cccc(C(=O)N4CCC5(CC4)CCN(S(=O)(=O)c4ccc(Cl)s4)CC5)c3[nH]2)c(C)c1 (centres unmarked) [I_CC-56, N-[1-[7-[9-[(5-Chloro-thiophen-2-yl)sulfonyl]-3,9-diazaspiro[5.5]undecane-3-carbonyl]-1H-benzoimidazol-2-yl]-ethyl]-4-methoxy-N,2,6-trimethyl-benzenesulfonic acid amide]
98	81	COc1cc(C)c(S(=O)(=O)N(C)C(C)c2nc3cccc(C(=O)N4CCC5(CCN(Cc6ccccc6C#N)CC5)CC4)c3[nH]2)c(C)c1 (centres unmarked) [I_CC-45, N-[1-[7-[9-[(2-Cyano-phenyl)-methyl]-3,9-diazaspiro[5.5]undecane-3-carbonyl]-1H-benzoimidazol-2-yl]-ethyl]-4-methoxy-N,2,6-trimethyl-benzenesulfonic acid amide]
95	49	COc1cc(C)c(S(=O)(=O)N(C)C(C)c2nc3cccc(C(=O)N4CCC5(CCN(Cc6ccc(F)cc6Cl)CC5)CC4)c3[nH]2)c(C)c1 (centres unmarked) [I_CC-39, N-[1-[7-[9-[(2-Chloro-4-fluoro-phenyl)-methyl]-3,9-diazaspiro[5.5]undecane-3-carbonyl]-1H-benzoimidazol-2-yl]-ethyl]-4-methoxy-N,2,6-trimethyl-benzenesulfonic acid amide]
101	84	COc1cc(C)c(S(=O)(=O)N(C)C(C)c2nc3cccc(C(=O)N4CCC5(CCN(Cc6cccc(C#N)c6)CC5)CC4)c3[nH]2)c(C)c1 (centres unmarked) [I_CC-44, N-[1-[7-[9-[(3-Cyano-phenyl)-methyl]-3,9-diazaspiro[5.5]undecane-3-carbonyl]-1H-benzoimidazol-2-yl]-ethyl]-4-methoxy-N,2,6-trimethyl-benzenesulfonic acid amide]
89	42	COc1cc(C)c(S(=O)(=O)N(C)C(C)c2nc3cccc(C(=O)N4CCC5(CCN(C(=O)c6ccc(C(F)(F)F)cn6)CC5)CC4)c3[nH]2)c(C)c1 (centres unmarked) [I_CC-46, 4-Methoxy-N,2,6-trimethyl-N-[1-[7-[9-[5-(trifluoromethyl)-pyridine-2-carbonyl]-3,9-diazaspiro[5.5]undecane-3-carbonyl]-1H-benzoimidazol-2-yl]-ethyl]-benzenesulfonic acid amide]
88	78	COc1cc(C)c(S(=O)(=O)N(C)C(C)c2nc3cccc(C(=O)N4CCC5(CCN(C(=O)CC(C)(C)C)CC5)CC4)c3[nH]2)c(C)c1 (centres unmarked) [I_CC-51, N-[1-[7-[9-(3,3-Dimethyl-butanoyl)-3,9-diazaspiro[5.5]undecane-3-carbonyl]-1H-benzoimidazol-2-yl]-ethyl]-4-methoxy-N,2,6-trimethyl-benzenesulfonic acid amide]
98	85	COc1cc(C)c(S(=O)(=O)N(C)C(C)c2nc3cccc(C(=O)N4CCC5(CCN(Cc6ccc(C#N)cc6)CC5)CC4)c3[nH]2)c(C)c1 (centres unmarked) [I_CC-43, N-[1-[7-[9-[(4-Cyano-phenyl)-methyl]-3,9-diazaspiro[5.5]undecane-3-carbonyl]-1H-benzoimidazol-2-yl]-ethyl]-4-methoxy-N,2,6-trimethyl-benzenesulfonic acid amide]
86	91	COc1cc(C)c(S(=O)(=O)N(C)C(C)c2nc3cccc(C(=O)N4CCC5(CCN(Cc6c(F)cccc6OC)CC5)CC4)c3[nH]2)c(C)c1 (centres unmarked) [I_CC-34, N-[1-[7-[9-[(2-Fluoro-6-methoxy-phenyl)-methyl]-3,9-diazaspiro[5.5]undecane-3-carbonyl]-1H-benzoimidazol-2-yl]-ethyl]-4-methoxy-N,2,6-trimethyl-benzenesulfonic acid amide]
